Measurements published in PubChem BioAssay AID1963424 (Molecular Pharmacology Branch, DTP, NCI, 2024).
One block for each compound: values may come before it.

System: 327498-153-R-J2-PDC complex spheroid growth, % test/control
Test: Anticancer human tumor 327498-153-R-J2-PDC patient-derived uterine carcinosarcoma cell line growth inhibition [Asc]
Conditions: for IC50: curve of first compound; for viability, T/C: stronger effect = lower value
Summary of the method: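 Complex solid-tumor spheroids incorporating human endothelial and mesenchymal stem cells received single agents or combinations over half-log dilution ranges anchored to clinical Cmax.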

[1] = second compound 0.01 µM, first compound 0.0316 µM
[2] = second compound 0.01 µM, first compound 0.1 µM
[3] = second compound 0.01 µM, first compound 0.316 µM
[4] = second compound 0.01 µM, first compound 1 µM
[5] = second compound 0.01 µM, first compound 3.16 µM
[6] = second compound 0.01 µM, first compound 10 µM
[7] = second compound 0.0316 µM, first compound 0.0316 µM
[8] = second compound 0.0316 µM, first compound 0.1 µM
[9] = second compound 0.0316 µM, first compound 0.316 µM
[10] = second compound 0.0316 µM, first compound 1 µM
[11] = second compound 0.0316 µM, first compound 3.16 µM
[12] = second compound 0.0316 µM, first compound 10 µM
[13] = second compound 0.1 µM, first compound 0.0316 µM
[14] = second compound 0.1 µM, first compound 0.1 µM
[15] = second compound 0.1 µM, first compound 0.316 µM
[16] = second compound 0.1 µM, first compound 1 µM
[17] = second compound 0.1 µM, first compound 3.16 µM
[18] = second compound 0.1 µM, first compound 10 µM
[19] = second compound 0.316 µM, first compound 0.0316 µM
[20] = second compound 0.316 µM, first compound 0.1 µM
[21] = second compound 0.316 µM, first compound 0.316 µM
[22] = second compound 0.316 µM, first compound 1 µM
[23] = second compound 0.316 µM, first compound 3.16 µM
[24] = second compound 0.316 µM, first compound 10 µM
[25] = second compound 1 µM, first compound 0.0316 µM
[26] = second compound 1 µM, first compound 0.1 µM
[27] = second compound 1 µM, first compound 0.316 µM
[28] = second compound 1 µM, first compound 1 µM
[29] = second compound 1 µM, first compound 3.16 µM
[30] = second compound 1 µM, first compound 10 µM
[31] = second compound 0.01 µM, first compound 0.00949 µM
[32] = second compound 0.01 µM, first compound 0.03 µM
[33] = second compound 0.01 µM, first compound 0.0949 µM
[34] = second compound 0.01 µM, first compound 0.3 µM
[35] = second compound 0.01 µM, first compound 0.949 µM
[36] = second compound 0.01 µM, first compound 3 µM
[37] = second compound 0.0316 µM, first compound 0.00949 µM
[38] = second compound 0.0316 µM, first compound 0.03 µM
[39] = second compound 0.0316 µM, first compound 0.0949 µM
[40] = second compound 0.0316 µM, first compound 0.3 µM
[41] = second compound 0.0316 µM, first compound 0.949 µM
[42] = second compound 0.0316 µM, first compound 3 µM
[43] = second compound 0.1 µM, first compound 0.00949 µM
[44] = second compound 0.1 µM, first compound 0.03 µM
[45] = second compound 0.1 µM, first compound 0.0949 µM
[46] = second compound 0.1 µM, first compound 0.3 µM
[47] = second compound 0.1 µM, first compound 0.949 µM
[48] = second compound 0.1 µM, first compound 3 µM
[49] = second compound 0.316 µM, first compound 0.00949 µM
[50] = second compound 0.316 µM, first compound 0.03 µM
[51] = second compound 0.316 µM, first compound 0.0949 µM
[52] = second compound 0.316 µM, first compound 0.3 µM
[53] = second compound 0.316 µM, first compound 0.949 µM
[54] = second compound 0.316 µM, first compound 3 µM
[55] = second compound 1 µM, first compound 0.00949 µM
[56] = second compound 1 µM, first compound 0.03 µM
[57] = second compound 1 µM, first compound 0.0949 µM
[58] = second compound 1 µM, first compound 0.3 µM
[59] = second compound 1 µM, first compound 0.949 µM
[60] = second compound 1 µM, first compound 3 µM
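Also: spheroids exposed to compound for 7 days after 3 days of growth.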
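For viability, T/C in this document: 100% = DMSO vehicle control wells.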

IC50 (second compound 0.01 µM): > 10000 nM
IC50 (second compound 0.0316 µM): > 10000 nM
IC50 (second compound 0.1 µM): > 10000 nM
IC50 (second compound 0.316 µM): > 10000 nM
IC50 (second compound 1 µM): > 10000 nM
SMILES: C#Cc1c(F)ccc2cc(O)cc(-c3ncc4c(N5CC6CCC(C5)N6)nc(OCC56CCCN5CC(F)C6)nc4c3F)c12 (stereo not given) + CNC(C)C(=O)NC1CN(S(=O)(=O)c2cccc(S(=O)(=O)N3CCC4CCC(C(=O)NC(c5ccccc5)c5ccccc5)N4C(=O)C(NC(=O)C(C)NC)C3)c2)CCC2CCC(C(=O)NC(c3ccccc3)c3ccccc3)N2C1=O
viability, T/C [1]: 102%
viability, T/C [2]: 97.8%
viability, T/C [3]: 95.8%
viability, T/C [4]: 88.6%
viability, T/C [5]: 68.8%
viability, T/C [6]: 53%
viability, T/C [7]: 103%
viability, T/C [8]: 97.3%
viability, T/C [9]: 102%
viability, T/C [10]: 77%
viability, T/C [11]: 61.9%
viability, T/C [12]: 55.1%
viability, T/C [13]: 103%
viability, T/C [14]: 95.4%
viability, T/C [15]: 97.5%
viability, T/C [16]: 82.8%
viability, T/C [17]: 69.4%
viability, T/C [18]: 61.9%
viability, T/C [19]: 106%
viability, T/C [20]: 104%
viability, T/C [21]: 92.4%
viability, T/C [22]: 82.3%
viability, T/C [23]: 74.5%
viability, T/C [24]: 55.6%
viability, T/C [25]: 96.3%
viability, T/C [26]: 96.1%
viability, T/C [27]: 97%
viability, T/C [28]: 84.9%
viability, T/C [29]: 74%
viability, T/C [30]: 67%

IC50 (second compound 0.01 µM): 1310 nM
IC50 (second compound 0.0316 µM): 1180 nM
IC50 (second compound 0.1 µM): 1350 nM
IC50 (second compound 0.316 µM): 1200 nM
IC50 (second compound 1 µM): 985 nM
SMILES: C=C(F)C(=O)N1CCN(c2nc(OCC3CCCN3C)nc3c2CCN(c2cccc4cccc(Cl)c24)C3)CC1CC#N (stereo not given) + CNC(C)C(=O)NC1CN(S(=O)(=O)c2cccc(S(=O)(=O)N3CCC4CCC(C(=O)NC(c5ccccc5)c5ccccc5)N4C(=O)C(NC(=O)C(C)NC)C3)c2)CCC2CCC(C(=O)NC(c3ccccc3)c3ccccc3)N2C1=O
viability, T/C [1]: 74.3%
viability, T/C [2]: 71%
viability, T/C [3]: 58.4%
viability, T/C [4]: 61.6%
viability, T/C [5]: 14.5%
viability, T/C [6]: 0.14%
viability, T/C [7]: 73.2%
viability, T/C [8]: 71.6%
viability, T/C [9]: 64.5%
viability, T/C [10]: 56.8%
viability, T/C [11]: 16.2%
viability, T/C [12]: 0.14%
viability, T/C [13]: 76%
viability, T/C [14]: 67.6%
viability, T/C [15]: 74.3%
viability, T/C [16]: 62.6%
viability, T/C [17]: 14.1%
viability, T/C [18]: 0.13%
viability, T/C [19]: 75.3%
viability, T/C [20]: 74.7%
viability, T/C [21]: 66%
viability, T/C [22]: 58.1%
viability, T/C [23]: 11.2%
viability, T/C [24]: 0.14%
viability, T/C [25]: 86%
viability, T/C [26]: 78.8%
viability, T/C [27]: 66.3%
viability, T/C [28]: 55.5%
viability, T/C [29]: 15%
viability, T/C [30]: 0.21%

IC50 (second compound 0.01 µM): > 10000 nM
IC50 (second compound 0.0316 µM): > 10000 nM
IC50 (second compound 0.1 µM): > 10000 nM
IC50 (second compound 0.316 µM): > 10000 nM
IC50 (second compound 1 µM): > 10000 nM
SMILES: C=CC(=O)N1CCN(c2nc(=O)n(-c3c(C)ccnc3C(C)C)c3nc(-c4c(O)cccc4F)c(F)cc23)C(C)C1 (stereo not given) + CNC(C)C(=O)NC1CN(S(=O)(=O)c2cccc(S(=O)(=O)N3CCC4CCC(C(=O)NC(c5ccccc5)c5ccccc5)N4C(=O)C(NC(=O)C(C)NC)C3)c2)CCC2CCC(C(=O)NC(c3ccccc3)c3ccccc3)N2C1=O
viability, T/C [1]: 84.2%
viability, T/C [2]: 96%
viability, T/C [3]: 75%
viability, T/C [4]: 74.6%
viability, T/C [5]: 77.8%
viability, T/C [6]: 64.6%
viability, T/C [7]: 83.5%
viability, T/C [8]: 77.9%
viability, T/C [9]: 70.5%
viability, T/C [10]: 67%
viability, T/C [11]: 72.2%
viability, T/C [12]: 62.9%
viability, T/C [13]: 86%
viability, T/C [14]: 79.4%
viability, T/C [15]: 84.5%
viability, T/C [16]: 77.6%
viability, T/C [17]: 70.4%
viability, T/C [18]: 67.6%
viability, T/C [19]: 89.4%
viability, T/C [20]: 83.3%
viability, T/C [21]: 80.7%
viability, T/C [22]: 73.8%
viability, T/C [23]: 77.2%
viability, T/C [24]: 75.5%
viability, T/C [25]: 90.6%
viability, T/C [26]: 78.8%
viability, T/C [27]: 85.4%
viability, T/C [28]: 77%
viability, T/C [29]: 72.2%
viability, T/C [30]: 69.7%

IC50 (second compound 0.01 µM): 193 nM
IC50 (second compound 0.0316 µM): 151 nM
IC50 (second compound 0.1 µM): 173 nM
IC50 (second compound 0.316 µM): 173 nM
IC50 (second compound 1 µM): 150 nM
SMILES: CCN1C(C(=O)NC23CCC(C(=O)O)(CC2)CC3)C(c2cccc(Cl)c2F)C2(C(=O)Nc3cc(Cl)ccc32)C12CCCCC2 (stereo not given) + CNC(C)C(=O)NC1CN(S(=O)(=O)c2cccc(S(=O)(=O)N3CCC4CCC(C(=O)NC(c5ccccc5)c5ccccc5)N4C(=O)C(NC(=O)C(C)NC)C3)c2)CCC2CCC(C(=O)NC(c3ccccc3)c3ccccc3)N2C1=O
viability, T/C [31]: 88.1%
viability, T/C [32]: 90.9%
viability, T/C [33]: 72.2%
viability, T/C [34]: 35.9%
viability, T/C [35]: 8.7%
viability, T/C [36]: 3.12%
viability, T/C [37]: 90.8%
viability, T/C [38]: 83.9%
viability, T/C [39]: 62%
viability, T/C [40]: 32.4%
viability, T/C [41]: 7.36%
viability, T/C [42]: 1.14%
viability, T/C [43]: 97.8%
viability, T/C [44]: 87.8%
viability, T/C [45]: 67.2%
viability, T/C [46]: 35.1%
viability, T/C [47]: 9.87%
viability, T/C [48]: 1.93%
viability, T/C [49]: 101%
viability, T/C [50]: 89.7%
viability, T/C [51]: 67.1%
viability, T/C [52]: 35.8%
viability, T/C [53]: 9.28%
viability, T/C [54]: 5.81%
viability, T/C [55]: 100%
viability, T/C [56]: 82.1%
viability, T/C [57]: 64.8%
viability, T/C [58]: 32.3%
viability, T/C [59]: 4.68%
viability, T/C [60]: 1.29%

IC50 (second compound 0.01 µM): > 3000 nM
IC50 (second compound 0.0316 µM): 1550 nM
IC50 (second compound 0.1 µM): > 3000 nM
IC50 (second compound 0.316 µM): > 3000 nM
IC50 (second compound 1 µM): > 3000 nM
SMILES: Cc1nc(N2CCC3(CC2)COC(C)C3N)c(CO)nc1Sc1ccnc(N)c1Cl (stereo not given) + CNC(C)C(=O)NC1CN(S(=O)(=O)c2cccc(S(=O)(=O)N3CCC4CCC(C(=O)NC(c5ccccc5)c5ccccc5)N4C(=O)C(NC(=O)C(C)NC)C3)c2)CCC2CCC(C(=O)NC(c3ccccc3)c3ccccc3)N2C1=O
viability, T/C [31]: 102%
viability, T/C [32]: 101%
viability, T/C [33]: 82.3%
viability, T/C [34]: 71.6%
viability, T/C [35]: 66.8%
viability, T/C [36]: 48.7%
viability, T/C [37]: 95.7%
viability, T/C [38]: 90.2%
viability, T/C [39]: 81.6%
viability, T/C [40]: 72.2%
viability, T/C [41]: 53.1%
viability, T/C [42]: 44%
viability, T/C [43]: 97.4%
viability, T/C [44]: 92.7%
viability, T/C [45]: 87.8%
viability, T/C [46]: 68.5%
viability, T/C [47]: 56.2%
viability, T/C [48]: 59.9%
viability, T/C [49]: 96.1%
viability, T/C [50]: 93.5%
viability, T/C [51]: 91%
viability, T/C [52]: 75.8%
viability, T/C [53]: 63.7%
viability, T/C [54]: 50%
viability, T/C [55]: 94.3%
viability, T/C [56]: 87.7%
viability, T/C [57]: 78.6%
viability, T/C [58]: 72.3%
viability, T/C [59]: 59.8%
viability, T/C [60]: 52.1%
